Results as given in patent publication US11708391B2, “Rapaglutins, novel inhibitors of GLUT and use thereof” (The Johns Hopkins University, priority 2016, dated 2023).
Read-outs that look alike come from different tables or passages of the source.

How the values were obtained:
DLD-1 wild type [1] = assay: 2-deoxy-D-[3H] glucose uptake in DLD-1 wild type cells; format: cell-based
Source text: (§1) FIGS. 4A-4B. E11 is a specific inhibitor of Glut1. (a) Glut1 protein levels of DLD-1 wild type and knock out cells analyzed by western blotting. (b) Inhibition of 2-deoxy-D-[3H] glucose uptake in DLD-1 wild type and knock out cells by E11 or A18.
(§2) Up to now, at least 14 different isoforms of GLUTs have been identified in human cells. It was then asked whether A18 and E11 are specific inhibitors of GLUT1. To answer this question, colon cancer DLD-1 wild type and GLUT1 gene knock out cell lines were chosen as a cell model (FIG. 4a). […] GLUTs that are most relevant to cancer are Glut1 and Glut3. To obtain additional evidence, Glut1 and Glut3 in HEK 293T cells were overexpressed and an alamar blue cell viability assay was performed again. […] (see FIGS. 4, 19, 20, 26; Table 4).

[2] = test system: DLD-1 GLUT1 gene knock out cells; assay: 2-deoxy-D-[3H] glucose uptake in DLD-1 GLUT1 knock out cells; format: cell-based
Source text: as §1, §2

DLD-1 wild type [3] = assay: alamar blue cell viability assay, DLD-1 wild type; format: cell-based
Source text: (§3) FIGS. 19A-19C. E11 is a specific inhibitor of Glut1. (a)(b) Inhibition of cell proliferation in A549, DLD-1 wild type and Glut1 knock out cells by A18 and E11. (c) Potency of A18 and E11 against the alamar blue assay in A549, DLD-1 wild type and Glut1 knock out cells.
as §2

breast cancer HCC1954 = assay: alamar blue assay, HCC1954; format: cell-based, human
Source text: (§4) Dose-dependent inhibition of cell proliferation by A18 and E11 was next evaluated in several other human cancer cell lines, including breast cancer HCC1954, pancreatic cancer PANC10.05, leukemia Jurkat T and colon cancer RKO (FIGS. 1b and 1c). […] (FIGS. 1 and 9; Table 3)

AMPK = assay: Western blot, AMPK phosphorylation in HEK 293T; format: cell-based
Source text: (§5) FIGS. 7A-7B. (a) A18 activates AMPK and inhibits S6K in HEK 293T cells. […] (b) A18 and E11 activate AMPK and inhibit S6K in HEK 293T cells.
(§6) Whether A18 and E11 treatment affect key cell growth signaling proteins was examined next. […] But it has no effects on the phosphorylation of ERK, AKT or JNK (FIG. 7). As previously reported, AMPK is likely to act as the key link between the ATP reduction and the subsequent cancer cell inhibition. (FIGS. 7 and 23-25). Based on the data reported here, the working model for A18 and E11 was proposed as outlined in FIG. 8. […] These led to upregulation of phosphorylation of AMPK and downregulation of phosphorylation of S6K. […] (FIG. 8)

[4] = test system: pancreatic cancer PANC10.05; assay: alamar blue assay, PANC10.05; format: cell-based, human; conditions: PANC 10.05
Source text: as §4

GLUT1 = target: T1, GLUT1 (Homo sapiens, UniProt P11166); assay: 3-O-methyl-D-[3H] glucose uptake in RBC-derived ghosts; format: cell-based
T1 construct: endogenous in cells; host or cells: erythrocyte (RBC-derived) ghosts
T1 sequence (P11166 1-492): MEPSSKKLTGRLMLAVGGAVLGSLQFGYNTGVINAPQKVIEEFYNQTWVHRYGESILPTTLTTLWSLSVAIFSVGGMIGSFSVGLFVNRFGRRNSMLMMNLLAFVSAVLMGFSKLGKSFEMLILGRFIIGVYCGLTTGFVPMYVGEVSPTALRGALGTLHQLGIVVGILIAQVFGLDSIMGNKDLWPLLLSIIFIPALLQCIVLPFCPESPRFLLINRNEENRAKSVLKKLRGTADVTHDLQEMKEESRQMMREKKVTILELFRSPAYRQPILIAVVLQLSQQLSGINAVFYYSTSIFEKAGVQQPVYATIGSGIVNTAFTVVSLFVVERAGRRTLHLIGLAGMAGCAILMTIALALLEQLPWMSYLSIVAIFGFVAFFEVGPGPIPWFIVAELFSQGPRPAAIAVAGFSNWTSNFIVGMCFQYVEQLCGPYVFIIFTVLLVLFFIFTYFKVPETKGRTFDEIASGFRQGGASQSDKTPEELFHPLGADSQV
Source text: FIGS. 3A-3D. Inhibition of Glucose Transport by A18 and E11. (a) Inhibition of 3-O-methyl-D-[3H] glucose uptake in human red blood cells by A18. (b) Inhibition of 3-O-methyl-D-[3H] glucose uptake in human red blood cells by E11. (c) Inhibition of 3-O-methyl-D-[3H] glucose uptake in erythrocyte ghosts by A18. (d) Inhibition of 3-O-methyl-D-[3H] glucose uptake in erythrocyte ghosts by E11.
A18 and E11 were previously shown to have a broad spectrum of anticancer activity. […] To test this hypothesis, red blood cells (RBCs) were applied as a cell model because RBCs express Glut1 as their sole glucose transporter and have been frequently used in studying glucose transport. […] To eliminate other possibilities, the glucose uptake assays were repeated in RBC-derived ghosts, in which all the intracellular proteins and enzymes were removed and only membrane-bound and membrane-associated proteins remained. […] (see FIGS. 2, 3 and 15-18)

leukemia Jurkat T = assay: alamar blue assay, Jurkat T; format: cell-based, human
Source text: as §4

glucose transporters = test system: T2, glucose transporters; assay: 2-deoxy-D-[3H] glucose uptake in A549 cells; format: cell-based, human; conditions: for inhibition of glucose transport: A549 cells, glucose uptake assay
T2 construct: IC50 uptake of 3H-labeled 3-O-methylglucose; other: A549 cells; compared with 3-O-methylglucose uptake; other: A549 cells treated with drugs for 1 min; other: A549 cells, glucose uptake assay; other
Experimental: FIGS. 2A-2D. Inhibition of Glucose Transport by A18 and E11. (a) Inhibition of 3-O-methyl¬D-[3H] glucose uptake in A549 cells by A18. (b) Inhibition of 3-O-methyl-D-[3H] glucose uptake in A549 cells by E11. (c) Inhibition of 2-deoxy-D-[3H] glucose uptake in A549 […] cells by A18. (d) Inhibition of 2-deoxy-D-[3H] glucose uptake in A549 cells by E11.
FIGS. 16A-16B. Inhibition of Glucose Transport by A18 and E11. Cytochalasin B (10 μM), A18 (3 μM), E11 (3 μM) and DMSO control were used to treated A549 cells for 10 min (a) or 1 min (b), then glucose uptake in the treated cells was measured at 1, 3, 10 and 30 min after the addition of 2-dexoy-D-[^3H] glucose.
Direct action on glucose transporters was measured by monitoring uptake of 3H-labeled 3-O-methylglucose, which is transported by glucose transporters but not metabolized further, allowing the assessment of initial rate of glucose uptake. […] Initial uptake can also be assessed by measuring the uptake of 3H-labeled 2-deoxy-D-glucose, which gets into the cell through glucose transporters and is phosphorylated by hexokinase but cannot be metabolized further due to the lack of oxygen at the second position.

[5] = test system: DLD-1 GLUT1 gene knock out cells; assay: alamar blue cell viability assay, DLD-1 GLUT1 knock out; format: cell-based
Source text: as §3, §2

mTOR = assay: Western blot, mTOR / S6K in HEK 293T; format: cell-based
Source text: as §5, §6

Gly-^MSerBu-Nal-^MAla [E11]
inhibition of 2-deoxy-D-glucose uptake (DLD-1 wild type [1]): kept inhibitory activity
inhibition of 2-deoxy-D-glucose uptake [2]: didn't show any inhibition
inhibition of cell proliferation, alamar blue (DLD-1 wild type [3]): kept inhibitory activity
IC50 (breast cancer HCC1954): 159 nM
phosphorylation of AMPK (AMPK): inducing phosphorylation of AMPK
IC50 [4]: 79.8 nM
IC50 glucose uptake (GLUT1): totally lost its inhibitory activity
IC50 (leukemia Jurkat T): 251 nM
glucose uptake inhibition (glucose transporters; A549 cells treated with drugs for 1 min): 50%
inhibition of glucose transport (glucose transporters): significantly inhibit
inhibition of cell proliferation, alamar blue [5]: didn't show any inhibition
mTOR inhibition (S6K) (mTOR): mTOR inhibition

CC[C@@H](C)[C@H]1C(=O)NCC(=O)N(C)CC/C=C/C(=O)OCC(C)(C)C(=O)C(=O)N2CCCC[C@H]2C(=O)O[C@H](CCc2ccc(OC)c(OC)c2)c2cccc(c2)NC(=O)CCC(=O)N(C)[C@@H](CC(C)C)C(=O)N[C@H](Cc2ccccc2)C(=O)N1C [A18]
inhibition of 2-deoxy-D-glucose uptake (DLD-1 wild type [1]): strongly inhibited
inhibition of 2-deoxy-D-glucose uptake [2]: strongly inhibited
inhibition of cell proliferation, alamar blue (DLD-1 wild type [3]): strongly inhibited
IC50 (breast cancer HCC1954; Homo sapiens): 109 nM
phosphorylation of AMPK (AMPK): inducing phosphorylation of AMPK
IC50 ([4]; Homo sapiens, Panc1005): 119 nM
IC50 (GLUT1): 49.5 nM
IC50 (leukemia Jurkat T; Homo sapiens): 132 nM
inhibition of glucose transport (glucose transporters): significantly inhibit
inhibition of cell proliferation, alamar blue [5]: strongly inhibited
mTOR inhibition (S6K) (mTOR): mTOR inhibition
